Data taken from patent US20090264387A1, “ESTRA-1,3,5(10)-TRIENE DERIVATIVES FOR CONTRACEPTION” (GRUNENTHAL GMBH, priority 2008, published 2009).

Biological target: T1, recombinant human progestin receptor (Homo sapiens, UniProt P06401)
T1 sequence (P06401 1-933): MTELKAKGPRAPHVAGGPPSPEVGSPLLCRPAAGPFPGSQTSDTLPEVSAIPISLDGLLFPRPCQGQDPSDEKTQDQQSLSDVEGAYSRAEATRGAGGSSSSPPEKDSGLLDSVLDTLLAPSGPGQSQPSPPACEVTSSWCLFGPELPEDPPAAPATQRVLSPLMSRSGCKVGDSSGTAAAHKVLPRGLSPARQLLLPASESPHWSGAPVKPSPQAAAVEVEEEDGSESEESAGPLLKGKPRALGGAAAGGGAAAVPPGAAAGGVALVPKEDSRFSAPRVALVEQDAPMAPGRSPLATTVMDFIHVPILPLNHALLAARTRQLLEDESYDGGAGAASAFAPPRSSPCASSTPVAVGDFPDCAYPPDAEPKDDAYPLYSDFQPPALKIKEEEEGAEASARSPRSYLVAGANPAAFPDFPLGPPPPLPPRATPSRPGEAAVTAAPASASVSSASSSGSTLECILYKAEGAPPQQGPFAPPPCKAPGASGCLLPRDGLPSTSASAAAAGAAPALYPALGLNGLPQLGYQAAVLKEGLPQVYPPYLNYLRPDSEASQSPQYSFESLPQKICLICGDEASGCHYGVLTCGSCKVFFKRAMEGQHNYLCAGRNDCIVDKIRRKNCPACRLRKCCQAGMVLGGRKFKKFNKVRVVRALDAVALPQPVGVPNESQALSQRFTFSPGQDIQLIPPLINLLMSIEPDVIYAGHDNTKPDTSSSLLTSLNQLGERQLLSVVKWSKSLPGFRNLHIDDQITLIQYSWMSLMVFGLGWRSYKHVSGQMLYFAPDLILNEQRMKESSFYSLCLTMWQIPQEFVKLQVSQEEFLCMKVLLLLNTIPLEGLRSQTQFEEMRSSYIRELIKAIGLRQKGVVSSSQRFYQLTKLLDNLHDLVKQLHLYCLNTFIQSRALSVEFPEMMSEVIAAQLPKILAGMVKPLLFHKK
Assay: Relative binding affinity to recombinant human progestin receptor
Description: Methods of determining affinity to the aforementioned receptors are known to the person skilled in the art. In this context, reference can be made, for example, to EP-A 808 845; Lacroix et al., Bioorganic & Medicinal Chemistry 1999 (7) 2329-2341; and D. Philibert et al., Gynecol Endocrinol 1999, 13, 316-26.
The relative binding affinities of (2S,17S)-17-(2-hydroxypropanoyl)-3-hydroxy-17-methyl-estra-1,3,5(10),9(11)-tetraene [compound of the general formula (IV)] to the recombinant human progestin receptor, mineral corticoid receptor, androgen receptor, glucocorticoid receptor and oestrogen receptor were determined experimentally (cf. D. Philibert et al., Gynecol Endocrinol 1999, 13, 316-26).

## C[C@H](O)C(=O)[C@@]1(C)CC[C@H]2[C@@H]3CCc4cc(O)ccc4C3=CC[C@@]21C [(2S,17S)-17-(2-hydroxypropanoyl)-3-hydroxy-17-methylestra-1,3,5(10),9(11)-tetraene]
Recombinant human receptor, progesterone reference standard
  affinity to the progestin receptor (relative binding affinity): clear affinity
Versus other steroid receptors (mineral corticoid, androgen, glucocorticoid, oestrogen), quotient of relative binding affinities
  selectivity for the progestin receptor: high selectivity
